Molecules are shown by their SMILES. Like-named read-outs stand apart in the source and are kept apart here. A value given as a limit tells only on which side of the number the result lay.

Experimental findings from patent publication US20180002320A1, “USE OF MACROCYCLIC PICOLINAMIDES AS FUNGICIDES” (DOW AGROSCIENCES LLC, priority 2014, published 2018) are described below.

One experiment concerns Zymoseptoria tritici. The experiment can be described thus: Leaf Blotch of Wheat (SEPTTR) fungicidal activity. Type of experiment: in vivo. The following applies: Low Volume (121.5 g/H). Here is the method:
Technical grades of materials were dissolved in acetone, which were then mixed with nine volumes of H2O containing 110 ppm Triton X-100. The fungicide solutions were applied onto wheat seedlings using an automated booth sprayer to run-off. All sprayed plants were allowed to air dry prior to further handling. All fungicides were evaluated using the aforementioned method for their activity vs. all target diseases, unless stated otherwise. Wheat leaf blotch and brown rust activity were also evaluated using track spray applications, in which case the fungicides were formulated as EC formulations, containing 0.1% Trycol 5941 in the spray solutions. Wheat plants (variety Yuma) were grown from seed in a greenhouse in 50% mineral soil/50% soil-less Metro mix until the first leaf was fully emerged, with 7-10 seedlings per pot. These plants were inoculated with an aqueous spore suspension of Zymoseptoria tritici either prior to or after fungicide treatments. After inoculation the plants were kept in 100% relative humidity (one day in a dark dew chamber followed by two to three days in a lighted dew chamber at 20° C.) to permit spores to germinate and infect the leaf. The plants were then transferred to a greenhouse set at 20° C. for disease to develop. When disease symptoms were fully expressed on the 1st leaves of untreated plants, infection levels were assessed on a scale of 0 to 100 percent disease severity. Percent disease control was calculated using the ratio of disease severity on treated plants relative to untreated plants.

The test system of the next experiment is Puccinia triticina. Put plainly: Wheat Brown Rust (PUCCRT) fungicidal activity. Type of experiment: in vivo. The note with it: Low Volume (121.5 g/H). Here is the method: Technical grades of materials were dissolved in acetone, which were then mixed with nine volumes of H2O containing 110 ppm Triton X-100. The fungicide solutions were applied onto wheat seedlings using an automated booth sprayer to run-off. All sprayed plants were allowed to air dry prior to further handling. All fungicides were evaluated using the aforementioned method for their activity vs. all target diseases, unless stated otherwise. Wheat leaf blotch and brown rust activity were also evaluated using track spray applications, in which case the fungicides were formulated as EC formulations, containing 0.1% Trycol 5941 in the spray solutions. Wheat plants (variety Yuma) were grown from seed in a greenhouse in 50% mineral soil/50% soil-less Metro mix until the first leaf was fully emerged, with 7-10 seedlings per pot. These plants were inoculated with an aqueous spore suspension of Puccinia triticina either prior to or after fungicide treatments. After inoculation the plants were kept in a dark dew room at 22° C. with 100% relative humidity overnight to permit spores to germinate and infect the leaf. The plants were then transferred to a greenhouse set at 24° C. for disease to develop. Fungicide formulation, application and disease assessment followed the procedures as described in the Example A.

Where [1] appears, read: 72 h, 3 Day Curative, read-out: SEPTTR 3DC disease control.
Where [2] appears, read: 72 h, 3 Day Curative, read-out: PUCCRT 3DC disease control.
Setting [3] is: 24 h, 1 Day Protectant, read-out: SEPTTR 1DP disease control.
Where [4] appears, read: 24 h, 1 Day Protectant, read-out: PUCCRT 1DP disease control.

With `COc1ccc(CO[C@H]2[C@H](C)OC(=O)[C@@H](NC(=O)c3nccc(OC)c3OCOC(C)=O)CCOC[C@@H]2OCc2ccc(OC)cc2)cc1` [Compound 32], the pest or weed control at 121.5 g/ha in the experiment with Zymoseptoria tritici (setting [1]) and in the experiment on Puccinia triticina (setting [2]) was less than 80% throughout.
Turning to `COc1ccnc(C(=O)N[C@H]2CCCC[C@@H]3OC(C)(C)O[C@H]3[C@H](C)OC2=O)c1OCOC(C)=O` [Compound 33], the pest or weed control at 121.5 g/ha with Zymoseptoria tritici (setting [3]) was less than 80%; in the experiment on Zymoseptoria tritici (setting [1]) it was more than 80%; in the experiment on Puccinia triticina (setting [4]) it was more than 80%; in the experiment with Puccinia triticina (setting [2]), more than 80%.
As to `COc1ccnc(C(=O)N[C@H]2CCCC[C@H](OC)[C@@H](OC3CCCC3)[C@H](C)OC2=O)c1OCOC(C)=O` [Compound 34], the pest or weed control at 121.5 g/ha with Zymoseptoria tritici (setting [3]) is less than 80%; in the experiment with Zymoseptoria tritici (setting [1]), more than 80%; in the experiment on Puccinia triticina (setting [4]), more than 80%; in the experiment with Puccinia triticina (setting [2]), more than 80%.
With `COc1ccnc(C(=O)N[C@H]2CCCC[C@H](Oc3ccccc3)[C@@H](OC3CCCC3)[C@H](C)OC2=O)c1OCOC(C)=O` [Compound 36], the pest or weed control at 121.5 g/ha was less than 80% with Zymoseptoria tritici (setting [3]), less than 80% in the experiment with Zymoseptoria tritici (setting [1]), more than 80% in the experiment on Puccinia triticina (setting [4]) and more than 80% in the experiment with Puccinia triticina (setting [2]).
Regarding `COc1ccnc(C(=O)N[C@H]2CCOC[C@H](Oc3ccccc3)[C@@H](Oc3ccccc3)[C@H](C)OC2=O)c1OCOC(C)=O` [Compound 37], the pest or weed control at 121.5 g/ha with Zymoseptoria tritici (setting [3]), in the experiment on Zymoseptoria tritici (setting [1]), in the experiment with Puccinia triticina (setting [4]) and in the experiment on Puccinia triticina (setting [2]) was more than 80% each time.
For `CCCOC(=O)O[C@H]1CCCC[C@H](NC(=O)c2nccc(OC)c2OCOC(C)=O)C(=O)O[C@@H](C)[C@@H]1OCC(C)C` [Compound 38], the pest or weed control at 121.5 g/ha is more than 80% in the experiment on Zymoseptoria tritici (setting [3]), more than 80% in the experiment on Zymoseptoria tritici (setting [1]), more than 80% in the experiment with Puccinia triticina (setting [4]) and less than 80% with Puccinia triticina (setting [2]).
Take `COc1ccnc(C(=O)N[C@H]2CCOC[C@H](OC)[C@@H](Oc3ccccc3)[C@H](C)OC2=O)c1OCOC(C)=O` [Compound 40]: the pest or weed control at 121.5 g/ha in the experiment with Zymoseptoria tritici (setting [3]), in the experiment with Zymoseptoria tritici (setting [1]), in the experiment with Puccinia triticina (setting [4]) and in the experiment with Puccinia triticina (setting [2]) was more than 80% throughout.
In the case of `CCCO[C@H]1COCC[C@H](NC(=O)c2nccc(OC)c2OCOC(C)=O)C(=O)O[C@@H](C)[C@@H]1Oc1ccccc1` [Compound 41], the pest or weed control at 121.5 g/ha in the experiment on Zymoseptoria tritici (setting [3]), with Zymoseptoria tritici (setting [1]), with Puccinia triticina (setting [4]) and in the experiment on Puccinia triticina (setting [2]) was more than 80% each time.
On to `CCCO[C@H]1[C@H](C)OC(=O)[C@@H](NC(=O)c2nccc(OC)c2OCOC(C)=O)CCOC[C@@H]1Oc1ccccc1` [Compound 42], for which the pest or weed control at 121.5 g/ha with Zymoseptoria tritici (setting [3]) is less than 80%; with Zymoseptoria tritici (setting [1]), less than 80%; with Puccinia triticina (setting [4]) it was more than 80%; in the experiment on Puccinia triticina (setting [2]), less than 80%.
On to `COc1ccnc(C(=O)N[C@H]2CCOC[C@H](OC(=O)C(C)C)[C@@H](Oc3ccccc3)[C@H](C)OC2=O)c1OCOC(C)=O` [Compound 44], for which the pest or weed control at 121.5 g/ha was less than 80% with Zymoseptoria tritici (setting [3]), less than 80% in the experiment on Zymoseptoria tritici (setting [1]), more than 80% in the experiment with Puccinia triticina (setting [4]) and more than 80% in the experiment with Puccinia triticina (setting [2]).
On to `COc1ccnc(C(=O)N[C@H]2CCOC[C@H](OCC(C)C)[C@@H](Oc3ccccc3)[C@H](C)OC2=O)c1OCOC(C)=O` [Compound 45], for which the pest or weed control at 121.5 g/ha in the experiment with Zymoseptoria tritici (setting [3]), in the experiment with Zymoseptoria tritici (setting [1]), in the experiment with Puccinia triticina (setting [4]) and in the experiment with Puccinia triticina (setting [2]) was more than 80% in each case.
Regarding `COc1ccnc(C(=O)N[C@H]2CCOC[C@H](Oc3ccccc3)[C@@H](OCC(C)C)[C@H](C)OC2=O)c1OCOC(C)=O` [Compound 46], the pest or weed control at 121.5 g/ha in the experiment with Zymoseptoria tritici (setting [3]) was more than 80%; in the experiment on Zymoseptoria tritici (setting [1]), less than 80%; with Puccinia triticina (setting [4]), more than 80%; in the experiment on Puccinia triticina (setting [2]), less than 80%.
In the case of `COc1ccnc(C(=O)N[C@H]2CCOC[C@H](Oc3ccccc3)[C@@H](Oc3ccccc3)[C@H](C)OC2=O)c1OC(C)=O` [Compound 47], the pest or weed control at 121.5 g/ha in the experiment with Zymoseptoria tritici (setting [3]), in the experiment on Zymoseptoria tritici (setting [1]), in the experiment with Puccinia triticina (setting [4]) and with Puccinia triticina (setting [2]) was more than 80% in each case.
Take `COc1ccnc(C(=O)N[C@H]2CCOC[C@H](OC)[C@@H](Oc3ccccc3)[C@H](C)OC2=O)c1OC(C)=O` [Compound 48]: the pest or weed control at 121.5 g/ha in the experiment with Zymoseptoria tritici (setting [3]), in the experiment on Zymoseptoria tritici (setting [1]), in the experiment on Puccinia triticina (setting [4]) and with Puccinia triticina (setting [2]) was more than 80% throughout.
For `CC(=O)OCOc1cccnc1C(=O)N[C@H]1CCCC[C@H](CC2CCCC2)[C@@H](Oc2ccccc2)[C@H](C)OC1=O` [Compound 49], the results for the pest or weed control at 121.5 g/ha in the experiment with Zymoseptoria tritici (setting [3]), in the experiment on Puccinia triticina (setting [4]) and in the experiment on Puccinia triticina (setting [2]) were less than 80%, more than 80% and less than 80%, respectively.
`COc1ccnc(C(=O)N[C@H]2CCCC[C@H](CC3CCCC3)[C@@H](Oc3ccccc3)[C@H](C)OC2=O)c1OCOC(C)=O` [Compound 50]: the pest or weed control at 121.5 g/ha in the experiment on Zymoseptoria tritici (setting [3]) is more than 80%; in the experiment on Zymoseptoria tritici (setting [1]), less than 80%; in the experiment on Puccinia triticina (setting [4]), more than 80%; in the experiment on Puccinia triticina (setting [2]), more than 80%.
Regarding `CCOCC(=O)OCOc1c(OC)ccnc1C(=O)N[C@H]1CCCC[C@H](CC2CCCC2)[C@@H](Oc2ccccc2)[C@H](C)OC1=O` [Compound 51, ((2-(((3S,8R,9R,10S)-8-(cyclopentylmethyl)-10-methyl-2-oxo-9-phenoxyoxecan-3-yl)carbamoyl)-4-methoxypyridin-3-yl)oxy)methyl 2-ethoxyacetate], the pest or weed control at 121.5 g/ha with Zymoseptoria tritici (setting [3]) was more than 80%; with Puccinia triticina (setting [4]), more than 80%; with Puccinia triticina (setting [2]) it was less than 80%.
Take `COc1ccnc(C(=O)N[C@H]2CCCC[C@H](CC3CCCC3)[C@@H](Oc3ccccc3)[C@H](C)OC2=O)c1OC(C)=O` [Compound 52]: the pest or weed control at 121.5 g/ha in the experiment with Zymoseptoria tritici (setting [3]) is more than 80%; in the experiment with Puccinia triticina (setting [4]), more than 80%; in the experiment on Puccinia triticina (setting [2]) it was less than 80%.
Take `C=CCO[C@@H]1[C@@H](CC2CCCC2)CCCC[C@H](NC(=O)c2nccc(OC)c2OCOC(C)=O)C(=O)O[C@H]1C` [Compound 53]: the pest or weed control at 121.5 g/ha with Zymoseptoria tritici (setting [1]) and with Puccinia triticina (setting [4]) was less than 80% in each case.
Consider `COc1ccnc(C(=O)N[C@H]2CCCC[C@H](CC3CCCC3)[C@@H](OC(=O)C(C)C)[C@H](C)OC2=O)c1OCOC(C)=O` [Compound 54], for which the pest or weed control at 121.5 g/ha in the experiment on Zymoseptoria tritici (setting [3]) was more than 80%; in the experiment with Puccinia triticina (setting [4]), more than 80%; in the experiment on Puccinia triticina (setting [2]) it was less than 80%.
In the case of `CCOCC(=O)OCOc1c(OC)ccnc1C(=O)N[C@H]1CCCC[C@H](CC2CCCC2)[C@@H](OC(=O)C(C)C)[C@H](C)OC1=O` [Compound 55], the pest or weed control at 121.5 g/ha in the experiment with Zymoseptoria tritici (setting [3]) was less than 80%; in the experiment on Zymoseptoria tritici (setting [1]), less than 80%; in the experiment on Puccinia triticina (setting [4]), more than 80%; in the experiment with Puccinia triticina (setting [2]), less than 80%.
In the case of `COc1ccnc(C(=O)N[C@H]2CCCC[C@H](CC3CCCC3)[C@@H](OC(=O)C(C)C)[C@H](C)OC2=O)c1OC(C)=O` [Compound 56, (2S,3R,4R,9S)-9-(3-acetoxy-4-methoxypicolinamido)-4-(cyclopentylmethyl)-2-methyl-10-oxooxecan-3-yl isobutyrate], the pest or weed control at 121.5 g/ha was more than 80% with Zymoseptoria tritici (setting [3]), less than 80% in the experiment on Zymoseptoria tritici (setting [1]), more than 80% with Puccinia triticina (setting [4]) and less than 80% in the experiment on Puccinia triticina (setting [2]).
Regarding `CCCO[C@@H]1[C@@H](CC2CCCC2)CCCC[C@H](NC(=O)c2nccc(OC)c2OCOC(C)=O)C(=O)O[C@H]1C` [Compound 57], the values for the pest or weed control at 121.5 g/ha in the experiment with Zymoseptoria tritici (setting [3]), in the experiment with Puccinia triticina (setting [4]) and in the experiment with Puccinia triticina (setting [2]) were less than 80%, more than 80% and less than 80%, respectively.
Regarding `CCCO[C@@H]1[C@@H](CC2CCCC2)CCCC[C@H](NC(=O)c2nccc(OC)c2OC(C)=O)C(=O)O[C@H]1C` [Compound 58], the pest or weed control at 121.5 g/ha in the experiment on Zymoseptoria tritici (setting [3]) is less than 80%; in the experiment with Zymoseptoria tritici (setting [1]), less than 80%; with Puccinia triticina (setting [4]), more than 80%; in the experiment with Puccinia triticina (setting [2]) it was less than 80%.
